Measured values reported in PubChem BioAssay (NCI).
Values joined by “and” are separate entries in the source; they are usually repeats but may differ in a detail not shown here. Equal entries are not always repeated.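 Cultured in 96-well plates, cells were exposed to test compound for 48 hours across five concentrations. Here, GI50 denotes the concentration required for 50% inhibition of growth. TGI: concentration producing complete growth inhibition.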 Where a SMILES comes first, the peptide text is derived from it. [ ]: non-standard residue; d: D form. The star is where a group is joined. NMeF = CN[CH](Cc1ccccc1)C(=O)O; NMeV = CN[CH](C(=O)O)C(C)C; Boc = CC(C)(C)OC(=O)*

What was measured:
Assay in all cases: NCI anticancer screen, dose series, 48 h
LXFL 529 NSCLC = system: LXFL 529 NSCLC
XF 498 CNS = system: XF 498 CNS
KM20L2 colon = system: KM20L2 colon
HOP-18 NSCLC = system: HOP-18 NSCLC
T-47D breast = system: T-47D breast
DU-145 prostate = system: DU-145 prostate
MDA-N = system: MDA-N
MCF7 breast = system: MCF7 breast

SMILES	TGI (LXFL 529 NSCLC) [µM]	TGI (T-47D breast)	TGI (DU-145 prostate)	TGI (MDA-N)	TGI (MCF7 breast)	GI50 (T-47D breast)	other results
CCOC(=O)CC1(C(=O)OCC)c2[nH]c3ccccc3c2CCN1Cc1ccccc1 (stereo unspecified)	> 100	–	–	–	–	–	TGI (XF 498 CNS): 41.4 µM; TGI (KM20L2 colon): 32.5 µM; TGI (HOP-18 NSCLC): 54.4 µM
OC[C@H]1CCCC1O (stereo partly specified)	–	> 100 µM	> 100 µM	> 100 µM	> 100 µM	–	–
COc1ccc(-c2n[nH]nc2-c2cc(OC)c(OC)c(OC)c2)cc1	–	57.3 µM	–	–	> 80.7 µM	2.66 µM	GI50 (MCF7 breast): < 0.01 µM
Cc1ccn2c(c1)nc1nc3ccccc3nc12	> 100	–	–	–	–	–	TGI (XF 498 CNS): > 100 µM; TGI (KM20L2 colon): > 100 µM
COC(=O)C1=C(C)N(NC(=O)OC(C)(C)C)C(=O)C1=P(c1ccccc1)(c1ccccc1)c1ccccc1	> 100	–	–	–	–	–	TGI (XF 498 CNS): > 100 µM; TGI (KM20L2 colon): > 100 µM; TGI (HOP-18 NSCLC): > 100 µM
NCC1Nc2ccccc2[C@@H](O)C1O (stereo partly specified)	–	> 100 µM	> 100 µM	> 100 µM	> 100 µM	–	–
COc1ccccc1CNCCCN1C(=O)c2ccc3c4c(ccc(c24)C1=O)C(=O)N(CCCOCCCCOCCCN)C3=O	–	3.34 µM	3.44 µM	–	–	0.926 µM	GI50 (DU-145 prostate): 1.78 µM
COC(C(O)CO)C(O)C(O)C(=O)NNc1ccccc1 (stereo unspecified)	–	> 100 µM	> 100 µM	> 100 µM	> 100 µM	–	–
C=C1C(=O)O[C@@H]2/C=C(\C)CC/C=C(/COC(C)=O)C[C@@H](OC(C)=O)[C@@H]12	–	26.6 µM	19.2 µM	20.5 µM	17 µM	–	–
CC(C)n1nc(-c2cc3cc(O)ccc3[nH]2)c2c(N)ncnc21	–	0.417 µM	12 µM	–	7.86 µM	0.0435 µM	GI50 (DU-145 prostate): 0.498 µM; GI50 (MCF7 breast): 0.128 µM
O=S(=O)(N=S(c1ccccc1)c1ccccc1)c1ccccc1	–	> 100 µM	> 100 µM	–	> 100 µM	–	–
O=C(N/N=C/c1ccccc1)c1c(-c2cccnc2)cnc2ccccc12	–	–	> 100 µM	> 100 µM	> 100 µM	–	–
COC(=O)/C(=N\Nc1nnc(C)n1N)C(C#N)c1ccc(Cl)cc1 (stereo unspecified)	> 100	–	–	–	–	–	TGI (XF 498 CNS): > 100 µM; TGI (KM20L2 colon): > 100 µM; TGI (HOP-18 NSCLC): > 100 µM
Oc1cccnc1CN1CCCCC1	–	> 100 µM	> 100 µM	> 100 µM	> 100 µM	–	–
O=C1CCN2C(=O)CCN12	> 100	–	–	–	–	–	TGI (XF 498 CNS): > 100 µM
NCCCCN(CCCN)/[N+]([O-])=N\O	> 100	–	–	–	–	–	TGI (KM20L2 colon): > 100 µM; TGI (HOP-18 NSCLC): > 100 µM
CC(C)C(Nc1c2ccccc2nc2ccccc12)C(=O)O (stereo unspecified)	> 100	–	–	–	–	–	TGI (XF 498 CNS): > 100 µM; TGI (KM20L2 colon): > 100 µM
COc1ccc(Cn2cc3c(c2-c2ccccc2)CC(C)(C)c2cnoc2-3)cc1	–	> 100 µM	7.5 µM	–	> 100 µM	2.51 µM	GI50 (DU-145 prostate): 1.78 µM; GI50 (MCF7 breast): 0.87 µM

SMILES	TGI (LXFL 529 NSCLC) [µM]	TGI (T-47D breast)	TGI (DU-145 prostate)	TGI (MDA-N)	TGI (MCF7 breast)	GI50 (T-47D breast)	other results
N#C/C(=C1C=C(Br)/C(=N\O)C=C\1Cl)c1cccc2ccccc12	–	12.9 µM	12.6 µM	3.28 µM	28.6 µM	–	–
CC(=O)[O-].CCN(CC)c1ccc(C=NCCN=Cc2ccc(N(CC)CC)cc2[O-])c([O-])c1.[Mn+3]	44.1	–	–	–	–	–	GI50 (LXFL 529 NSCLC): 22.5 µM; GI50 (KM20L2 colon): 17.8 µM; TGI (KM20L2 colon): 33.2 µM; GI50 (HOP-18 NSCLC): 18.7 µM; TGI (HOP-18 NSCLC): 35.5 µM
CN(C)C(=O)c1cc2cnc(Nc3ccc(-c4csc5c(=S)cc(N6CCOCC6)oc45)cc3)nc2n1C1CCCC1	–	> 50 µM	> 50 µM	–	2.44 µM	0.198 µM	GI50 (DU-145 prostate): 0.774 µM; GI50 (MCF7 breast): 0.235 µM
COc1cc(-c2ccc3c(c2)NC(=O)/C3=C\c2ccc[nH]2)ccc1O	–	> 50 µM	> 30.2 µM	–	> 50 µM	0.219 µM	GI50 (DU-145 prostate): 0.0193 µM; GI50 (MCF7 breast): 0.0888 µM
Cn1c2c(c3ccccc31)CC1c3c(c4ccccc4n3C)CC21 (stereo unspecified)	–	> 100 µM	> 100 µM	> 100 µM	> 100 µM	–	–
COc1cc2c3c(n(CCCNC(=O)OCC4c5ccccc5-c5ccccc54)c(=O)c2cc1OC)-c1cc2c(cc1/C3=C\CCNC(=O)OCC1c3ccccc3-c3ccccc31)OCO2	–	> 50 µM	> 50 µM	–	> 18.5 µM	> 50 µM	GI50 (DU-145 prostate): > 42.2 µM
c1ccc2c(c1)ccn2CCc1c[nH]c2ccccc12	–	> 10 µM	> 10 µM	> 10 µM	> 10 µM	–	–
Cc1cc(S(=O)(=O)Nc2nnc(-c3ccccc3)c(-c3ccccc3)n2)c(SCC(N)=O)cc1Cl	–	> 100 µM	> 100 µM	–	> 100 µM	34.5 µM	GI50 (DU-145 prostate): 55.7 µM; GI50 (MCF7 breast): 36.4 µM
C1=CC2SSSC2C1 (stereo unspecified)	> 100	–	–	–	–	–	TGI (XF 498 CNS): > 100 µM; TGI (KM20L2 colon): > 100 µM; TGI (HOP-18 NSCLC): > 100 µM
O=C1OC(c2ccccc2)=N/C1=C\c1cccc2ccccc12	> 100	–	–	–	–	–	TGI (XF 498 CNS): > 100 µM; TGI (HOP-18 NSCLC): > 100 µM
COC1=CC(=O)c2nc(-c3cccc(C)n3)[nH]c2C1=O	–	58.1 µM	73.3 µM	–	35.7 µM	15.8 µM	GI50 (DU-145 prostate): 25.6 µM; GI50 (MCF7 breast): 16.6 µM
CC(C)C(NC(=O)OC(C)(C)C)C(=O)N(C)C(Cc1ccccc1)C(=O)N(C)C(C(=O)O)C(C)C (stereo not drawn) (Boc-Val-[NMeF]-[NMeV]-OH; configuration not given here)	> 100	–	–	–	–	–	TGI (XF 498 CNS): > 100 µM; TGI (KM20L2 colon): > 100 µM
COc1ccc(Nc2c3ccccc3nc3occc23)cc1	–	> 38.2 µM	> 100 µM	–	36.1 µM	–	GI50 (DU-145 prostate): 14.2 µM; GI50 (MCF7 breast): 0.682 µM
Cc1cn(C2CC(N(O)Cc3ccccc3)C(CO[Si](C)(C)C(C)(C)C)O2)c(=O)[nH]c1=O (stereo unspecified)	–	> 100 µM and 33.6 µM	> 100 µM and 32 µM	35.1 µM and 31.7 µM	> 100 µM and 35.1 µM	61.7 µM and 18.6 µM	–
N#CC(NNC(=O)Cc1ccccc1)c1c(O)ccc2ccccc12 (stereo unspecified)	–	60.4 µM	> 63.2 µM	> 100 µM	14.3 µM	–	TGI (KM20L2 colon): 42 µM; TGI (HOP-18 NSCLC): 35.4 µM
O=C1OC(C(O)CO)C(=O)C1=O (stereo unspecified)	–	7700 µM	3130 µM	–	5860 µM	2790 µM	GI50 (DU-145 prostate): 1720 µM; GI50 (MCF7 breast): 2350 µM
CC(=O)CSCc1ccccn1	–	> 100 µM	> 100 µM	> 100 µM	–	–	–
